Assay: LC/MRM-MS quantification of THC in oral fluid with heavy isotope standard curve
Type: in vivo
Conditions: oral fluid of cannabis smoking volunteer, ratio to heavy THC isotope
Description: Samples containing drugs of interest are processed and run on the Thermo Quantum Triple Quad MS (LC/MRM MS) in triplicate. Reference Stable heavy isotope analogs are spiked into known drug free OF to determine the sensitivity limit of detection. A standard curve is generated by mixing a known amount of reference heavy isotope analogs with varying amounts of the natural drug, plotting the ratio of the concentration of natural drug to that of the heavy standard isotope analog. The reference heavy isotope analogs are spiked into suspected positive OF sample. The ratio of […] is calculated and fitted to the standard curve to calculate the natural drugs concentration.
The present disclosure provides an exemplary oral fluid sample processing protocol. […]

## CCCCCc1cc(O)c2c(c1)OC(C)(C)[C@@H]1CCC(C)=C[C@@H]21 [THC, (6aR,10aR)-6,6,9-trimethyl-3-pentyl-6a, 7,8,10a-tetrahydro-6H-benzo[c]chromen-1-ol]
  concentration of THC in saliva: 8.615 ng/mL

Reference: patent US20240345105A1, “Compositions and Methods for Detecting Analytes in Oral Fluids” (George Mason Research Foundation, Inc., priority 2023, published 2024)
